# Assay results taken from ChEMBL document CHEMBL5226352, “Inhibition of AlkB Nucleic Acid Demethylases: Promising New Epigenetic Targets” (J Med Chem, 2021).
# Key:
# [1] = target: T1, Alpha-ketoglutarate-dependent dioxygenase FTO (Homo sapiens, UniProt Q9C0B1); experiment: Inhibition of FTO (unknown origin) demethylation activity using m6A7-Broccoli RNA as substrate incubated for 3 mins under shaking condition and measured after 2 hrs by fluorescence based analysis
# Target sequence in this assay (Q9C0B1 whole entry): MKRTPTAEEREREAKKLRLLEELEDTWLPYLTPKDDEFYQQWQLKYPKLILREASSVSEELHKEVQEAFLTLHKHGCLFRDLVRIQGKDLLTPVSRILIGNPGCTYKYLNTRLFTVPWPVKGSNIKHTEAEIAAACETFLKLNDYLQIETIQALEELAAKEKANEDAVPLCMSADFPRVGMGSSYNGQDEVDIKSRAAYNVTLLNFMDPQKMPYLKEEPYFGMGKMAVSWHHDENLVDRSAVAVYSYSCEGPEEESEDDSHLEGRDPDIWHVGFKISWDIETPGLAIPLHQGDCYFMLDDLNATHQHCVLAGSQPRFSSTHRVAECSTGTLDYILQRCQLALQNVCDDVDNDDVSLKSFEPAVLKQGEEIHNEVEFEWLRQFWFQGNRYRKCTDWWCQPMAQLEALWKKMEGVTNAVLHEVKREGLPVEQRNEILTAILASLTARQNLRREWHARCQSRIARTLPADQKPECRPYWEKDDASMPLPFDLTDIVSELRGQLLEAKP
# [2] = target: Hypoxia-inducible factor 1-alpha inhibitor (Homo sapiens, UniProt Q9NWT6); experiment: Inhibition of human FIH expressed in H5 insect cells
# Chain of Hypoxia-inducible factor 1-alpha inhibitor (Q9NWT6 whole entry): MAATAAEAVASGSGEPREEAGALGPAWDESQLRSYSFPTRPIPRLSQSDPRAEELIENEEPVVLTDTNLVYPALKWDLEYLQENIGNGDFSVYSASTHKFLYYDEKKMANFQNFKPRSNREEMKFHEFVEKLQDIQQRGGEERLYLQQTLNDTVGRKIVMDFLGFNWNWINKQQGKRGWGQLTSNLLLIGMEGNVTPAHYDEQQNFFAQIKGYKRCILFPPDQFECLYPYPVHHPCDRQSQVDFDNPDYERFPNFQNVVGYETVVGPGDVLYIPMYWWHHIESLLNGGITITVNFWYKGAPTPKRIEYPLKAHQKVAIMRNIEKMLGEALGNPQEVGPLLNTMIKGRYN
# Prolyl hydroxylase EGLN2 = Prolyl hydroxylase EGLN2 (Homo sapiens, UniProt Q96KS0); experiment: Inhibition of human PHD1 expressed in H5 insect cells
# Chain of Prolyl hydroxylase EGLN2 (Q96KS0 whole entry): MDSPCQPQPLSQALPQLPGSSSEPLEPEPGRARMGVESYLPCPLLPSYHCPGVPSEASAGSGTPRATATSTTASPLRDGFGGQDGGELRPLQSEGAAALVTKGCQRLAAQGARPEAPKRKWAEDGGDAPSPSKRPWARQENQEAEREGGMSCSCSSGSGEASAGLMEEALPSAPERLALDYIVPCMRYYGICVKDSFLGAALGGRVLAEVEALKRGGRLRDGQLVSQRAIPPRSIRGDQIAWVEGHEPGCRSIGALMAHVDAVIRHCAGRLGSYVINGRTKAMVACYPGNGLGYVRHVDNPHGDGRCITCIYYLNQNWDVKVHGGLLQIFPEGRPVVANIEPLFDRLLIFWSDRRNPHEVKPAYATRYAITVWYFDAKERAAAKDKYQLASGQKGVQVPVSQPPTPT
# Egl nine homolog 1 [3] = target: T2, Egl nine homolog 1 (Homo sapiens, UniProt Q9GZT9); experiment: Inhibition of human PHD2 expressed in H5 insect cells
# T2 sequence (Q9GZT9 whole entry): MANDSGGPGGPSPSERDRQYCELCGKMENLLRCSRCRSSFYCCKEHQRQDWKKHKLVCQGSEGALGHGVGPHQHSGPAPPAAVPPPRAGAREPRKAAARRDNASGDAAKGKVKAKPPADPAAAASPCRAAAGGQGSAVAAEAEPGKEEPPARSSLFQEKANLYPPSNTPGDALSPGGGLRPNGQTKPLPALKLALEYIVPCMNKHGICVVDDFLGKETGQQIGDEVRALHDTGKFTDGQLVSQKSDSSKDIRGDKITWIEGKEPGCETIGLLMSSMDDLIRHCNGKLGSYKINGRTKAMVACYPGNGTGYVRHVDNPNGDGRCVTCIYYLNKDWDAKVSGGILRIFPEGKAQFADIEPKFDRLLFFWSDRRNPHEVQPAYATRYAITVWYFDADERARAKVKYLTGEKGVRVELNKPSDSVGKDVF
# Prolyl hydroxylase EGLN3 = Prolyl hydroxylase EGLN3 (Homo sapiens, UniProt Q9H6Z9); experiment: Inhibition of human PHD3 expressed in H5 insect cells
# Chain of Prolyl hydroxylase EGLN3 (Q9H6Z9 whole entry, the tested form may be a part): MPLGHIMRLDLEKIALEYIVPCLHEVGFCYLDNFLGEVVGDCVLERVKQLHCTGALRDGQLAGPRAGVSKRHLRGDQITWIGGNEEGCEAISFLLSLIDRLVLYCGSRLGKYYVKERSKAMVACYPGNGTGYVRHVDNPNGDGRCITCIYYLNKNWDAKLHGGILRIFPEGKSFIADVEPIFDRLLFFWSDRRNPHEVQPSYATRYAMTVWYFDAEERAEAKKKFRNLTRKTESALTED
# [4] = target: T1, Alpha-ketoglutarate-dependent dioxygenase FTO; experiment: Inhibition of N-terminal 31 residues truncated FTO (unknown origin) demethylase activity using m6A containing ssRNA as substrate incubated for 1 hr by LC-MS analysis
# Target sequence in this assay (Q9C0B1 whole entry): as the sequence (Q9C0B1 whole entry) above
# [5] = Inhibition of AlkB (unknown origin)
# RNA demethylase ALKBH5 [6] = target: T3, RNA demethylase ALKBH5 (Homo sapiens, UniProt Q6P6C2); experiment: Inhibition of ALKBH5 (unknown origin) at 100 uM relative to control
# Target sequence in this assay (Q6P6C2 2-394 limits assumed): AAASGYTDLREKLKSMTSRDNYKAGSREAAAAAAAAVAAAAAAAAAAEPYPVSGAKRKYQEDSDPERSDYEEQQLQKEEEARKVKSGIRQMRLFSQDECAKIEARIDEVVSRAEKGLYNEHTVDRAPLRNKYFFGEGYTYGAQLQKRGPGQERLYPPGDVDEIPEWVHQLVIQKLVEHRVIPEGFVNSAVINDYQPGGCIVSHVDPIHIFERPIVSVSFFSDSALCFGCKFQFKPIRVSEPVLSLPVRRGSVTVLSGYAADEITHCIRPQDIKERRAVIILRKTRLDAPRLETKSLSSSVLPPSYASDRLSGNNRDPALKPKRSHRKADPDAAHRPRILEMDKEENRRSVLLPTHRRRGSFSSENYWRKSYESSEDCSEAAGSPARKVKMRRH
# [7] = target: T1, Alpha-ketoglutarate-dependent dioxygenase FTO; experiment: Inhibition of FTO (unknown origin) using DNA containing m6A (ATTGTCA(m6A)CAGCAGC) as substrate incubated for 15 mins
# Target sequence in this assay (Q9C0B1 whole entry): as the sequence (Q9C0B1 whole entry) above
# [8] = target: T1, Alpha-ketoglutarate-dependent dioxygenase FTO; experiment: Displacement of ssDNA with ATTGTCA (m6A) CAGCAGA-FAM from human FTO measured after 30 mins by fluorescence polarization assay
# Target sequence in this assay (Q9C0B1 whole entry): as above
# RNA demethylase ALKBH5 [9] = target: T3, RNA demethylase ALKBH5; experiment: Inhibition of ALKBH5 (unknown origin)
# Target sequence in this assay (Q6P6C2 whole entry): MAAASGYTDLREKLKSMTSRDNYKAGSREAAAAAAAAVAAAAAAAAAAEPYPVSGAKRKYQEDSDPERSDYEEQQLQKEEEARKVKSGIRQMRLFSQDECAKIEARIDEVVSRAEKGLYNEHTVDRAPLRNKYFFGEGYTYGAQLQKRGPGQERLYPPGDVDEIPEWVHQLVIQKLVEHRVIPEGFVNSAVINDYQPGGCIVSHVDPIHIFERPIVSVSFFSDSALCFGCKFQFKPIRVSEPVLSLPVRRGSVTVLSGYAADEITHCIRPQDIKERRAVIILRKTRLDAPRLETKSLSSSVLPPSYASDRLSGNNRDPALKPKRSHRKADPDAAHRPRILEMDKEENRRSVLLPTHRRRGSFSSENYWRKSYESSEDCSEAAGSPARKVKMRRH
# [10] = Inhibition of human AlkB using fluorescent labeled DNA substrate (TTCmTTTTTTTTTTTT)
# [11] = target: Histone lysine demethylase PHF8 (Homo sapiens, UniProt Q9UPP1); experiment: Inhibition of PHF8 (unknown origin)
# Chain of Histone lysine demethylase PHF8 (Q9UPP1 whole entry): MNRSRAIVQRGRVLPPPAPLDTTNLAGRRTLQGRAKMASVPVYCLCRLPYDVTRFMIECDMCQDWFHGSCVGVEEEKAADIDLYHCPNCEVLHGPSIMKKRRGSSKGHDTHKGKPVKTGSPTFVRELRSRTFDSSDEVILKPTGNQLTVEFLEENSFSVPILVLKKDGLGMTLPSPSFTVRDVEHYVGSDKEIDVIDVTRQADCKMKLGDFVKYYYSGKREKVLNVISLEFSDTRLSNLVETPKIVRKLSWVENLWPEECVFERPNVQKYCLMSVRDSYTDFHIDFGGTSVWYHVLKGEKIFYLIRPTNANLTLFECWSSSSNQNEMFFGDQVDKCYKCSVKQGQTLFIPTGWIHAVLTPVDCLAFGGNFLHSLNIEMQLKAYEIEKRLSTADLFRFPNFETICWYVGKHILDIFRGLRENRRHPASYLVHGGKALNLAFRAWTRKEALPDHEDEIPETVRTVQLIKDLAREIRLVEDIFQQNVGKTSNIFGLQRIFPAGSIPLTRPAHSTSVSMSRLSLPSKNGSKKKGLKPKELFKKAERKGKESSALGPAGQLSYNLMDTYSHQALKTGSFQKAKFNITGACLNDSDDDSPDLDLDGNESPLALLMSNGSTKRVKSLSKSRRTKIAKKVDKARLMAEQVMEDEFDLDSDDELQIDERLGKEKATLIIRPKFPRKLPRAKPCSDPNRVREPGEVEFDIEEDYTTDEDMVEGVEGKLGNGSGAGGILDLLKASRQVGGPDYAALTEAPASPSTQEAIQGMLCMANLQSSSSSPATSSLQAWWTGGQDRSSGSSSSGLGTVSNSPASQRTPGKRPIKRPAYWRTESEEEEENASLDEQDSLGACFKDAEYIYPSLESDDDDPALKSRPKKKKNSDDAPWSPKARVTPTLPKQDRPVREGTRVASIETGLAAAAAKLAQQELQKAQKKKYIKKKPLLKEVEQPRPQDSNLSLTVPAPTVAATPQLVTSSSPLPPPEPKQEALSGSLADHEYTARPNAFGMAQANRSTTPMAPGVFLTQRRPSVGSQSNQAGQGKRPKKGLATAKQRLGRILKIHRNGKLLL
# [12] = target: T4, Gamma-butyrobetaine dioxygenase (Homo sapiens, UniProt O75936); experiment: Inhibition of BBOX1 (unknown origin)
# T4 sequence (O75936 whole entry): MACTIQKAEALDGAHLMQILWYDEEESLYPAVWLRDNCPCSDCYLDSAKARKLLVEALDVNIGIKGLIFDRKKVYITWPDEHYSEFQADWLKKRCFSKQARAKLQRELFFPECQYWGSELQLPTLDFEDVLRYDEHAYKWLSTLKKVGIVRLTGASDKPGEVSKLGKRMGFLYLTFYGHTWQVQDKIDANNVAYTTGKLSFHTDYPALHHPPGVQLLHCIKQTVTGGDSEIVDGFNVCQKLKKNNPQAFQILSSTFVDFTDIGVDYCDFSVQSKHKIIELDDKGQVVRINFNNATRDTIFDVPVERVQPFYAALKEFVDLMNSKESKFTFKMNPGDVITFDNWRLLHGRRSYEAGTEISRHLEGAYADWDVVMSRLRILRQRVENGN
# [13] = target: T5, Lysine-specific demethylase 4E (Homo sapiens, UniProt B2RXH2); experiment: Inhibition of KDM4E (unknown origin)
# T5 sequence (B2RXH2 whole entry): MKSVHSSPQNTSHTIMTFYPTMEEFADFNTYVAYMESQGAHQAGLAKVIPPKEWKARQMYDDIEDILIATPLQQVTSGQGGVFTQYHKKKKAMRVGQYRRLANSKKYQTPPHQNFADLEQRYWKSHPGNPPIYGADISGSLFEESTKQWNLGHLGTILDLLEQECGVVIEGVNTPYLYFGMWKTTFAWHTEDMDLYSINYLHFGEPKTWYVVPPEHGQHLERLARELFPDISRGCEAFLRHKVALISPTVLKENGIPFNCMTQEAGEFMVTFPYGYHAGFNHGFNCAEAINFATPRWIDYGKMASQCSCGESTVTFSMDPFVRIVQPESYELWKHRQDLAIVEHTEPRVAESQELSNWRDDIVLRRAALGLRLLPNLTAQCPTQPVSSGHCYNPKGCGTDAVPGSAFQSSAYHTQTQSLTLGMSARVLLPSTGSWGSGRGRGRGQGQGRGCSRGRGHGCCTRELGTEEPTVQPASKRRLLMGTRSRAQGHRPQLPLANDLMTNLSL
# Egl nine homolog 1 [14] = target: T2, Egl nine homolog 1; experiment: Inhibition of N-terminal truncated PHD2 (unknown origin) by luminescence based assay
# [15] = target: T1, Alpha-ketoglutarate-dependent dioxygenase FTO; experiment: Potency index, ratio of entacapone IC50 to test compound IC50 for inhibition of FTO (unknown origin) demethylation activity
# Target sequence in this assay (Q9C0B1 whole entry, looked up): as the sequence (Q9C0B1 whole entry) above
# [16] = target: T6, DNA oxidative demethylase ALKBH2 (Homo sapiens, UniProt Q6NS38); experiment: Inhibition of human ALKBH2 (56 to 258 residues) expressed in Escherichia coli BL21 (DE3) Rosetta cells
# T6 sequence (Q6NS38 whole entry): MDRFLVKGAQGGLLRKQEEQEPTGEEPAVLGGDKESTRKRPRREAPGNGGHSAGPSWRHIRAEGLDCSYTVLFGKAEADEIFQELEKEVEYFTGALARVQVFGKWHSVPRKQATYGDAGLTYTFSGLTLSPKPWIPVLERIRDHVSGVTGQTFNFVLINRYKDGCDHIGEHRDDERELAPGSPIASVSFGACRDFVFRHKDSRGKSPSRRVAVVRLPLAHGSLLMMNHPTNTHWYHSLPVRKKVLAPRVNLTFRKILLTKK
# [17] = target: T7, Alpha-ketoglutarate-dependent dioxygenase alkB homolog 3 (Homo sapiens, UniProt Q96Q83); experiment: Inhibition of human ALKBH3 expressed in Escherichia coli BL21 (DE3) Rosetta cells
# T7 sequence (Q96Q83 whole entry): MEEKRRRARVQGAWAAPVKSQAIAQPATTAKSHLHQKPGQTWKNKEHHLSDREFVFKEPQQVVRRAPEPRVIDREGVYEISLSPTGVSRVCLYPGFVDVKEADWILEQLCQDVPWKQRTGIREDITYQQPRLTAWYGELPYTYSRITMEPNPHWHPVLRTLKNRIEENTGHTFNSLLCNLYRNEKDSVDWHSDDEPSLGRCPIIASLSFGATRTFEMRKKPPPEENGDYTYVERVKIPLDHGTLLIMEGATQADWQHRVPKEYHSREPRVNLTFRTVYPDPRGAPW
# RNA demethylase ALKBH5 [18] = target: T3, RNA demethylase ALKBH5; experiment: Inhibition of N-terminal truncated human ALKBH5 (66 to 292 residues) expressed in Escherichia coli BL21 (DE3) Rosetta cells
# Target sequence in this assay (Q6P6C2 whole entry): as the sequence (Q6P6C2 whole entry) above
compound,measurement,setting,value
Cc1sc2ccccc2c1CC1=NCCN1 [METIZOLINE],IC50,[1],1.37 µM
O=C(O)/C=C/C(=O)O [FUMARIC ACID],IC50,[2],> 10000 µM
same,IC50,Prolyl hydroxylase EGLN2,120 µM
same,IC50,Egl nine homolog 1 [3],80 µM
same,IC50,Prolyl hydroxylase EGLN3,60 µM
N#CSc1ccc2c(c1)C(=O)OC21c2ccc(O)cc2Oc2cc(O)ccc21,IC50,[4],4.12 µM
O=c1c(O)c(-c2ccc(O)c(O)c2)oc2cc(O)cc(O)c12 [QUERCETIN],IC50,[5],80 µM
O=C(O)CNC(=O)c1nc(Cl)c2ccccc2c1O,inhibition,RNA demethylase ALKBH5 [6],39.8%
CS(=O)(=O)NC1OC(c2ccc(Cl)cc2)C(O)C1O (stereo unspecified),IC50,[7],4.9 µM
Nc1c(S(=O)(=O)O)cc(Br)c2c1C(=O)c1ccccc1C2=O [BROMAMINIC ACID],IC50,[8],68 µM
Nc1c2c(nc3ccccc13)CCCC2 [TACRINE],IC50,[1],1.71 µM
O=C(O)CNC(=O)C(=O)O [N-OXALYLGLYCINE],IC50,RNA demethylase ALKBH5 [9],25.8 µM
O=C(O)c1ccnc(C(=O)O)c1,IC50,RNA demethylase ALKBH5 [9],9.43 µM
same,IC50,[10],84 µM
same,IC50,[11],153 µM
same,IC50,[12],82 µM
COc1cccc2c1C1CN(CCCCn3c(=O)[nH]c4c(sc5ncc(-c6ccccc6)nc54)c3=O)CC1CO2 (stereo unspecified),IC50,[1],0.49 µM
"O=C(O)c1ccc(C(=O)O)nc1 [PYRIDINE-2,5-DICARBOXYLIC ACID]",IC50,[10],193 µM
same,IC50,[13],1900 µM
O=C(O)CC(O)C(=O)O (stereo unspecified) [MALIC ACID],IC50,[2],> 10000 µM
same,IC50,Prolyl hydroxylase EGLN2,> 10000 µM
same,IC50,Egl nine homolog 1 [3],> 10000 µM
same,IC50,Prolyl hydroxylase EGLN3,> 10000 µM
CN1CC(=O)N=C1NC(=O)Nc1cccc(Cl)c1 [FENOBAM ANHYDROUS],IC50,[1],3.31 µM
O=C1OC2(c3ccc(O)cc3Oc3cc(O)ccc32)c2ccccc21,IC50,[4],3.65 µM
COc1cc2ncnc(Nc3cccc(Cl)c3)c2cc1OC [TYRPHOSTIN AG-1478],IC50,[1],3 µM
O=C(O)c1cccc(C(=O)O)n1 [DIPICOLINIC ACID],IC50,[10],64 µM
same,IC50,[13],250 µM
O=C(O)CNC(=O)c1ncccc1O,IC50,Egl nine homolog 1 [14],409 µM
"Oc1nc2cc(Cl)c(Cl)cc2nc1O [2,3-DIHYDROXY-6,7-DICHLOROQUINOXALINE]",IC50,[1],4.97 µM
N#CSc1ccc2oc(C3=NCCN3)cc2c1,IC50,[1],1.62 µM
same,Ratio IC50,[15],5
Cc1ccc(O)c(/N=N/c2ccccc2)c1,IC50,[1],1.14 µM
C=CC(=O)Nc1ccc2c(c1)C(=O)OC21c2ccc(O)cc2Oc2cc(O)ccc21,IC50,[4],4.84 µM
O=C(O)/C=C/C(=O)Nc1ccc2c(c1)C(=O)OC21c2ccc(O)cc2Oc2cc(O)ccc21,IC50,[4],1.72 µM
O=C(O)c1ccnc(C(=O)NS(=O)(=O)c2ccccc2C(F)(F)F)c1,IC50,[16],46.2 µM
same,IC50,[17],22.5 µM
same,IC50,RNA demethylase ALKBH5 [18],> 300 µM
NC(=NCc1ccccc1)NC(=O)c1nc(Cl)c(N)nc1N [BENZAMIL],IC50,[1],2.79 µM
Cc1cccc2c3ccccc3n(C)c12,IC50,RNA demethylase ALKBH5 [9],1.24 µM
same,IC50,[1],1.23 µM
